Data set [1] concerns the target MDM2 binding domain (1–118) / PMDM6-F peptide (p53-MDM2) (Homo sapiens, UniProt Q00987). Nature of the data set: fluorescence polarization (FP) p53-MDM2 binding assay. On the procedure: A well-established fluorescence polarization (FP) binding assay was performed to measure the inhibitory activity (Ki) of designed compounds. […] The two phenyl rings of (R)-7c were located in the Phe19 and Trp23 pockets respectively and the propargyl group was partly inserted into the Leu26 pocket.
The dose-dependent binding experiments were carried out with serial dilution in DMSO of compounds. […] The Ki values were determined from a plot using nonlinear least-squares analysis. And curve fitting was performed using GraphPad Prism software.
For orientation: Polarisation of emitted light reports the rotation of a fluorescent probe.

The subject of a further data set is U-2 OS (wild-type p53). Nature of the data set: in vitro antitumor activity, MTT. Format: cell-based, human. The note with it: for pIC50: Homo sapiens, U2OS, 72 h, read-out: IC50 U-2 OS (wt-p53). The method, then:
(§1) To investigate the in vitro antiproliferative activity of the designed p53-MDM2 inhibitors, four human tumor cell lines, namely U-2 OS (wild-type p53), A549 (wild-type p53), Saos-2 (p53 null), and NCI-H1299 (p53 null), were chosen for assaying.
(§2) The cellular growth inhibitory activity was determined using four human cancer cell lines [U-2 OS (wild-type p53), A549 (wild-type p53), Saos-2 (p53 null), and NCI-H1299 (p53 null)]. 5–6 × 10^4 cells per well were plated in 96-well plates. After culturing for 24 h, test compounds were added onto triplicate wells with different concentrations and 0.1% DMSO for control. After 72 h of incubation, 20 μL of MTT (3-[4,5-dimethylthiazol-2-yl]-2,5-diphenyltetrazoliumbromide) solution (5 mg/mL) was added to each well, and after the samples were shaken for 1min the plate was incubated further for 4 h at 37 °C. […] were dissolved with 100 μL of DMSO. The absorbance (OD) was quantitated with microplate using Biotek Synergy H2 at 570 nm (BioTek, Winooski, VT, USA). Wells containing no drugs were used as blanks.

For the next data set, the system named is NCI-H1299 (p53 null). In words: in vitro antitumor activity, MTT. Format: cell-based. The note with it: Homo sapiens, read-out: IC50 NCI-H1299 (p53 null). The method, then:
as §1, §2

The test system of another data set is Saos-2 (p53 null). In words: in vitro antitumor activity, MTT. Type of data set: cell-based. The conditions noted are these: Homo sapiens, read-out: IC50 Saos-2 (p53 null). On the procedure:
as §1, §2

For another data set, the system named is A549 (wild-type p53). In words: in vitro antitumor activity, MTT. Type of data set: cell-based. The note with it: Homo sapiens, read-out: IC50 A549 (wt-p53). On the procedure: as §1, §2
Data set [2] concerns four human tumor cell lines (U-2 OS, A549, Saos-2, NCI-H1299). In words: in vitro antitumor activity, MTT, four cell lines together. Type of data set: cell-based. On the procedure: as §1, §2
Details of data set [3]: method as in PMID 16630722, PMID 16600594, PMID 16290148. The note with it: cited from earlier work.
Setting [4] is: FP binding assay, MDM2 (1–118) 10 nM, PMDM6-F 10 nM, read-out: Ki.

pIC50, pKi: −log10 of the molar value. Where two headings read alike, the source gives them in different places.

Chain of MDM2 binding domain (1–118) / PMDM6-F peptide (p53-MDM2) (Q00987 1-118): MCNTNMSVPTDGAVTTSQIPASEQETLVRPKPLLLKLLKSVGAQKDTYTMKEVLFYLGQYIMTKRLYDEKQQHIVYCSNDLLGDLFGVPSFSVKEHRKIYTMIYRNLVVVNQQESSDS

One may read the pKi as −log10 of the Ki, conventionally taken in molar units. Broadly, the pIC50 is the IC50 on a negative log10 scale, so that one unit is a factor of ten. Regarding `C#CCN1C(c2ccc(Cl)cc2)C(=O)N(C=C=C)c2ccccc2S1(=O)=O` (stereo not drawn) [Compound 7b, 3-(4-Chlorophenyl)-2-(prop-2-yn-1-yl)-5-(propa-1,2-dien-1-yl)-2,3-dihydrobenzo[f][1,2,5]thiadiazepin-4(5H)-one 1,1-dioxide], in data set [1] (setting [4]), the pKi was 6.44. In addition, the negative-log IC50 (pIC50) in the data set with U-2 OS (wild-type p53) (MTT) was below 4.00; with NCI-H1299 (p53 null) (NCI-H1299, MTT, 72 h) it was below 4.00; in the data set on Saos-2 (p53 null) (SAOS-2, MTT, 72 h), below 4.00; in the data set with A549 (wild-type p53) (A549, MTT, 72 h) it was below 4.00.
`Clc1ccc(C2NC(c3ccccc3)c3cc(Cl)ccc3-n3cnnc32)cc1` (stereo not drawn) [Compound 17, 8-Chloro-4-(4-chlorophenyl)-6-phenyl-5,6-dihydro-4H-benzo[f][1,2,4]triazolo[4,3-a][1,4]diazepine] showed a pKi in data set [1] of 5.55. Besides, the pIC50 with U-2 OS (wild-type p53) was 4.47; in the data set on NCI-H1299 (p53 null) (NCI-H1299, 72 h), 4.46; with Saos-2 (p53 null) (SAOS-2, 72 h) it was 4.61; with A549 (wild-type p53) (A549, 72 h), 4.57. Further, the “in vitro antitumor activity (in words)” value in data set [2] was “poor activity”.
Consider `O=C1Nc2ccccc2S(=O)(=O)N=C1c1ccc(Cl)cc1` [Compound 8, 3-(4-Chlorophenyl)benzo[f][1,2,5]thiadiazepin-4(5H)-one 1,1-dioxide], for which, in data set [1] (FP binding assay), the “p53-MDM2 inhibitory activity (in words)” value is listed as “dramatic decrease of the inhibitory activity”. Moreover, the pKi in data set [1] (setting [4]) is 4.92. Also, the pIC50 was below 4.00 with U-2 OS (wild-type p53) (MTT); below 4.00 in the data set on NCI-H1299 (p53 null) (NCI-H1299, MTT, 72 h); below 4.00 in the data set with Saos-2 (p53 null) (SAOS-2, MTT, 72 h); below 4.00 in the data set with A549 (wild-type p53) (A549, MTT, 72 h).
In turn, `O=C1Nc2ccc(Cl)cc2C(c2ccccc2)=NC1c1ccc(Cl)cc1` (stereo not drawn) [Compound 13, 7-Chloro-3-(4-chlorophenyl)-5-phenyl-1H-benzo[e][1,4]diazepin-2(3H)-one] showed a negative-log Ki (pKi) in data set [1] of 6.70. Moreover, the pIC50 is 5.51 with U-2 OS (wild-type p53); 5.21 in the data set with NCI-H1299 (p53 null) (NCI-H1299, 72 h); 5.52 in the data set on Saos-2 (p53 null) (SAOS-2, 72 h); 5.04 with A549 (wild-type p53) (A549, 72 h).
For the compound `O=C1Nc2ccccc2S(=O)(=O)N(Cc2cccc(F)c2)C1c1ccc(Cl)cc1` (stereo not drawn) [Compound 7e, 3-(4-Chlorophenyl)-2-(3-fluorobenzyl)-2,3-dihydrobenzo[f][1,2,5]thiadiazepin-4(5H)-one 1,1-dioxide], in data set [1] (setting [4]), the pKi was below 4.00. Also, the pIC50 with U-2 OS (wild-type p53) (MTT) is 4.04; in the data set with NCI-H1299 (p53 null) (NCI-H1299, MTT, 72 h) it was below 4.00; with Saos-2 (p53 null) (SAOS-2, MTT, 72 h), below 4.00; with A549 (wild-type p53) (A549, MTT, 72 h), below 4.00.
Turning to `Clc1ccc(C2N=C(c3ccccc3)c3cc(Cl)ccc3-n3cnnc32)cc1` (stereo not drawn) [Compound 16, 8-Chloro-4-(4-chlorophenyl)-6-phenyl-4H-benzo[f][1,2,4]], the pKi in data set [1] is 5.91. Moreover, the pIC50 is 5.38 with U-2 OS (wild-type p53); 5.26 in the data set on NCI-H1299 (p53 null) (NCI-H1299, 72 h); 5.45 with Saos-2 (p53 null) (SAOS-2, 72 h); 5.12 with A549 (wild-type p53) (A549, 72 h). The “antiproliferative activity against U-2 OS relative to nutlin-3” value with U-2 OS (wild-type p53) (better than nutlin-3) is reported as “about 4 fold”.
On to `C#CCN1C(c2ccc(Cl)cc2)C(=O)Nc2ccccc2S1(=O)=O` (stereo not drawn) [Compound 7c, 3-(4-Chlorophenyl)-2-(prop-2-yn-1-yl)-2,3-dihydrobenzo[f][1,2,5]thiadiazepin-4(5H)-one 1,1-dioxide], for which the pKi in data set [1] (setting [4]) is 6.59. The pIC50 was below 4.00 with U-2 OS (wild-type p53) (MTT); below 4.00 with NCI-H1299 (p53 null) (NCI-H1299, MTT, 72 h); below 4.00 in the data set with Saos-2 (p53 null) (SAOS-2, MTT, 72 h); below 4.00 with A549 (wild-type p53) (A549, MTT, 72 h).
As for `O=C1Nc2ccccc2S(=O)(=O)N(Cc2ccccc2)C1c1ccc(Cl)cc1` (stereo not drawn) [Compound 7g, 2-Benzyl-3-(4-chlorophenyl)-2,3-dihydrobenzo[f][1,2,5]thiadiazepin-4(5H)-one 1,1-dioxide], the negative-log Ki (pKi) in data set [1] (setting [4]) was 5.09. Moreover, the pIC50 with U-2 OS (wild-type p53) (MTT) was below 4.00; in the data set on NCI-H1299 (p53 null) (NCI-H1299, MTT, 72 h) it was below 4.00; with Saos-2 (p53 null) (SAOS-2, MTT, 72 h), below 4.00; with A549 (wild-type p53) (A549, MTT, 72 h), below 4.00.
Consider `N#CCN1C(c2ccc(Cl)cc2)C(=O)Nc2ccccc2S1(=O)=O` (stereo not drawn) [Compound 7d, 2-(3-(4-Chlorophenyl)-1,1-dioxido-4-oxo-4,5-dihydrobenzo[f][1,2,5]thiadiazepin-2(3H)-yl)acetonitrile], for which the pKi in data set [1] (setting [4]) is below 4.00. The pIC50 in the data set with U-2 OS (wild-type p53) (MTT) is below 4.00; with NCI-H1299 (p53 null) (NCI-H1299, MTT, 72 h) it was below 4.00; with Saos-2 (p53 null) (SAOS-2, MTT, 72 h), below 4.00; in the data set with A549 (wild-type p53) (A549, MTT, 72 h) it was 4.03.
In data set [1], `S=C1Nc2ccc(Cl)cc2C(c2ccccc2)=NC1c1ccc(Cl)cc1` (stereo not drawn) [Compound 14, 7-Chloro-3-(4-chlorophenyl)-5-phenyl-1H-benzo[e][1,4]diazepine-2(3H)-thione] showed a negative logarithm of the Ki (pKi) of 5.06. In addition, the pIC50 in the data set with U-2 OS (wild-type p53) is 5.27; in the data set with NCI-H1299 (p53 null) (NCI-H1299, 72 h) it was 4.81; in the data set on Saos-2 (p53 null) (SAOS-2, 72 h) it was 5.44; with A549 (wild-type p53) (A549, 72 h), 4.62.
`C#CCN1C(=O)C(c2ccc(Cl)cc2)N(CC#C)S(=O)(=O)c2ccccc21` (stereo not drawn) [Compound 7a, 3-(4-Chlorophenyl)-2,5-di(prop-2-yn-1-yl)-2,3-dihydrobenzo[f][1,2,5]thiadiazepin-4(5H)-one 1,1-dioxide]: the negative-log Ki (pKi) in data set [1] (setting [4]) was 6.37. The negative logarithm of the IC50 (pIC50) was below 4.00 with U-2 OS (wild-type p53) (MTT); below 4.00 with NCI-H1299 (p53 null) (NCI-H1299, MTT, 72 h); below 4.00 with Saos-2 (p53 null) (SAOS-2, MTT, 72 h); below 4.00 in the data set with A549 (wild-type p53) (A549, MTT, 72 h).
Take `O=C(O)[C@H](c1ccc(Cl)cc1)N1C(=O)c2cc(I)ccc2NC(=O)[C@@H]1c1ccc(Cl)cc1` [TDP222669]: in data set [3], the bioavailability result is listed as “limited bioavailability” and the in vivo clearance entry is reported as “rapid in vivo clearance”.
Regarding `COc1ccc(C2=N[C@@H](c3ccc(Cl)cc3)[C@@H](c3ccc(Cl)cc3)N2C(=O)N2CCNC(=O)C2)c(OC(C)C)c1` [Nutlin-3, reference compound], in the data set with U-2 OS (wild-type p53), the pIC50 is 4.79.
Take `O=C1Nc2ccccc2S(=O)(=O)N(Cc2c(F)cccc2F)C1c1ccc(Cl)cc1` (stereo not drawn) [Compound 7f, 3-(4-Chlorophenyl)-2-(2,6-difluorobenzyl)-2,3-dihydrobenzo[f][1,2,5]thiadiazepin-4(5H)-one 1,1-dioxide]: the pKi in data set [1] (setting [4]) is 4.11. Further, the pIC50 in the data set with U-2 OS (wild-type p53) (MTT) was below 4.00; with NCI-H1299 (p53 null) (NCI-H1299, MTT, 72 h) it was below 4.00; in the data set with Saos-2 (p53 null) (SAOS-2, MTT, 72 h) it was below 4.00; in the data set on A549 (wild-type p53) (A549, MTT, 72 h), below 4.00.

(Values after PMC4200789, “Design, Synthesis and Biological Evaluation of Sulfamide and Triazole Benzodiazepines as Novel p53-MDM2 Inhibitors” (International Journal of Molecular Sciences, 2014).)
